Among the data in patent publication US20120232062A1, “AZAINDAZOLES TO TREAT FLAVIVIRIDAE VIRUS INFECTION” (EIGER BIOPHARMACEUTICALS, INC., priority 2009, published 2012) are EC50 values, retold here.

The experiment deals with HCV genotype 1b. As to the kind of experiment: HCV 1b replicon luciferase assay. The format is cell-based. The procedure, abridged:
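Luminescence (Steady-Glo) served as the replication read-out after 48 h compound exposure of 1b replicon-luciferase Huh7 cells seeded at 10k/well. Dosing used 5-fold serial dilutions, 10 concentrations, top 25 μM final, 0.1% DMSO, duplicates.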
A general note: In antiviral work, replicon cells carry a viral genome segment that copies itself.

Where [1] appears, read: Hepatitis C virus, Huh-7, 48 h, Table 1, Huh7 HCV 1b replicon, luciferase reporter, 48 hours, read-out: 1b EC50.
[2] abbreviates: Hepatitis C virus, 48 h, read-out: EC50 in the 48 hour 1b replicon assay, 48 hour.
[3] abbreviates: Table 1, Huh7 HCV 1b replicon, luciferase reporter, 48 hours, read-out: 1b EC50.

Like-named read-outs stand apart in the source and are kept apart here.

On to `O=C(NC1CCNCC1)c1nn(-c2ccccc2)c2nc(N3CCCCCC3)ccc12` [compound 1350], for which the EC50 under setting [1] turned out to be 3.8 µM.
For `Cn1nc(CN2CCCC2CO)c2ccc(N3CCCCCC3)nc21` (centres unmarked) [compound 791], the EC50 under setting [1] is 8.5 µM.
Still for that read-out and setting: the figure for `CC1CC(NC(=O)c2nn(C)c3nc(N4CCCCCCC4)ccc23)CCN1CC1CCCCC1` (centres unmarked) [compound 1151] is 1.4 µM; for `O=C(/C=C/c1cccnc1)Nc1nn(Cc2ccc(Cl)cc2)c2nc(N3CCCCCC3)ccc12` [compound 747] it is 9 µM.
On the same count and under the same terms, the figure for `Cn1nc(C(=O)NC2CCN(CCN3CCCC3)CC2)c2ccc(NC3CCCCC3)nc21` [compound 1581] is 3.3 µM.
For the compound `Cc1ccc(C(=O)Nc2nn(C)c3nc(N4CCCCCC4)ccc23)s1` [EBP841], the EC50 under setting [2] is below 3 µM.
As for `CC(c1cccc(C(F)(F)F)c1)N1CCC(NC(=O)c2nn(C)c3nc(N4CCCCCCC4)ccc23)CC1` (centres unmarked) [compound 1312], the EC50 under setting [1] came to 2.7 µM.
For `Cn1nc(COCC2CCCNC2)c2ccc(N3CCCCCC3)nc21` (centres unmarked) [compound 986], the concentration giving a half-maximal response (EC50) under setting [1] is 7.9 µM.
Same read-out and setting: the figure for `CC1CCC(Oc2ccc3c(C(=O)NC4CCNCC4)nn(C)c3n2)C(C(C)C)C1` (centres unmarked) [compound 874] is 1.7 µM.
For the compound `CC(C)CCN1CCC(NC(=O)c2nn(C)c3nc(N4CCCCCCC4)ccc23)CC1C` (centres unmarked) [compound 1233], the half-maximal effective concentration (EC50) under setting [1] was determined as 5.3 µM.
On the same count and under the same terms, the result for `CN1C2CCC1CC(NCc1nn(C)c3nc(N4CCCCCC4)ccc13)C2` (centres unmarked) [compound 910] reads 3.9 µM.
As to `CCCn1nc(C(=O)NC2CCNCC2)c2ccc(N3CCCCCC3)nc21` [compound 858], under setting [1], the half-maximal effective concentration (EC50) stood at 3.3 µM.
On the same count and under the same terms, the result for `Cn1nc(C(=O)NC2CCNCC2)c2ccc(N3CCC(Cc4ccccc4)CC3)nc21` [compound 868] reads 2.4 µM; that for `CCC(CC)Oc1ccc2c(NC(=O)c3ccccc3)nn(C)c2n1` [compound 942], 8.6 µM; that for `CC1CCC(Oc2ccc3c(C(=O)NC4CCNCC4)nn(C)c3n2)CC1` (centres unmarked) [compound 879], 3.9 µM.
Still for that read-out and setting: the figure for `CCC(CC)Oc1ccc2c(NC(=O)CC3CCNCC3)nn(C)c2n1` [compound 953] is 6.4 µM.
In the case of `Cn1nc(C(=O)NC2CCN(CC3CCCCC3)CC2)c2ccc(NC3CCCCCCC3)nc21` [compound 1477], the concentration for a half-maximal effect (EC50) under setting [3] was found to be 0.53 µM.
As for `O=C(NC1CCCNC1)c1nnc2n(Cc3ccc(Cl)cc3)c(N3CCCCCC3)ccc1-2` (centres unmarked) [compound 710], the 50% effective concentration (EC50) under setting [1] came out at 7.9 µM.
With `Cn1nc(C(=O)NC2CC3CCCC(C2)N3)c2ccc(N3CCCCCC3)nc21` (centres unmarked) [compound 880], the 50% effective concentration (EC50) under setting [3] was 8.1 µM.
`CCC(CC)Oc1ccc2c(NC(=O)CC3CCCNC3)nn(C)c2n1` (centres unmarked) [compound 952]: the concentration for a half-maximal effect (EC50) under setting [1] amounted to 10 µM.
In the case of `CCC(CC)Oc1ccc2c(NC(=O)C3CCCNC3)nn(C)c2n1` (centres unmarked) [compound 938], under setting [1], the EC50 stood at 8.2 µM.
Same read-out and setting: the result for `CC(C)Cn1nc(C(=O)NC2CCNCC2)c2ccc(N3CCCCCC3)nc21` [compound 852] reads 2.9 µM; that for `O=C(NC1CCN(CCN2CCCCC2)CC1)c1nn(CC2CC2)c2nc(N3CCCCCC3)ccc12` [compound 1489], 0.55 µM; that for `CN(CC1CCCCC1)c1ccc2c(C(=O)NC3CCNCC3)nn(C)c2n1` [compound 867], 0.934 µM.
As to `C[C@@H]1CCCN1CCCc1nn(C)c2nc(N3CCCCCCC3)ccc12` [compound 1499], the EC50 under setting [1] stood at 4 µM.
The same measure, in the same setting: the result for `CCCN1CCC(NC(=O)c2nn(C)c3nc(N4CCCCCC4)ccc23)CC1` [compound 1596] reads 1.4 µM; that for `CC1CCCCN1CCCc1nn(C)c2nc(N3CCCCCCC3)ccc12` (centres unmarked) [compound 1454], 1.6 µM; that for `Cn1nc(COCC2CCNCC2)c2ccc(N3CCCCCC3)nc21` [compound 985], 7.6 µM.
Regarding `Cn1nc(-c2cnc(C3CCCNC3)s2)c2ccc(N3CCCCCCC3)nc21` (centres unmarked) [compound 1248], the EC50 under setting [1] was 4.1 µM.
On to `C=CCCCCCn1nc(C(=O)NC2CCN(CC=C)CC2)c2ccc(N3CCCCCC3)nc21` [compound 1106], for which, under setting [1], the half-maximal effective concentration (EC50) was 8.1 µM.
Take `Cn1nc(C(=O)N2CCNCC2)c2ccc(N3CCCCCC3)nc21` [compound 823]: the EC50 under setting [1] is 7.6 µM.
Regarding `CC(C)CN1CCC(NC(=O)c2nn(C)c3nc(NC4CCCCCCC4)ccc23)CC1` [compound 1473], the EC50 under setting [1] is 0.89 µM.
As for `Cn1nc(C(=O)Nc2cccc(S(N)(=O)=O)c2)c2ccc(N3CCCCCC3)nc21` [compound 824], the EC50 under setting [1] came to 3.5 µM.
For `Cn1nc(-c2c[nH]c(C3CCCNC3)n2)c2ccc(N3CCCCCC3)nc21` (centres unmarked) [compound 1095], under setting [1], the EC50 worked out at 3.8 µM.
Still for that read-out and setting: the figure for `Cn1nc(C(=O)N[C@@H]2C[C@H]3CC[C@@H](C2)N3)c2ccc(N3CCCCCC3)nc21` [compound 979] is 4.9 µM; for `Cn1nc(-c2nnc(C3CCN(CCN4CCCCC4)CC3)o2)c2ccc(N3CCCCCCC3)nc21` [compound 1373] it is 0.63 µM; for `CCC(CC)Oc1ccc2c(COCCN3CCCCC3)nn(Cc3ccc(Cl)cc3)c2n1` [compound 792] it is 4.6 µM.
Take `CC1CC(NC(=O)c2n[nH]c3nc(N4CCCCCC4)ccc23)CCN1` (centres unmarked) [compound 734]: under setting [1], the EC50 was 2.6 µM.
Still for that read-out and setting: the result for `CC1CC(NCc2nn(C)c3nc(N4CCCCCC4)ccc23)CCN1` (centres unmarked) [compound 909] reads 4 µM.
Still for that read-out and setting: the figure for `Cn1nc(CCCN2CCCC(CO)C2)c2ccc(N3CCCCCCC3)nc21` (centres unmarked) [compound 1460] is 2.7 µM; for `Cn1nc(-c2nnc(C3CCNCC3)o2)c2ccc(N3CCCCCC3)nc21` [compound 1125] it is 0.84 µM; for `C=CCCCCCCN1CCC(NC(=O)c2nn(C)c3nc(N4CCCCCC4)ccc23)CC1` [compound 1103] it is 0.3 µM.
For the compound `C=CCCCn1nc(C(=O)NC2CCN(CC=C)CC2)c2ccc(N3CCCCCC3)nc21` [compound 1104], the EC50 under setting [1] was 2.2 µM.
The same measure, in the same setting: the result for `CCC(CC)Oc1ccc2c(C(=O)NC3CCCNC3)nn(Cc3ccc(Cl)cc3)c2n1` (centres unmarked) [compound 794] reads 2.8 µM; that for `O=C(NC1CCNCC1)c1nn2c3nc(ccc13)OC/C=C/CCCCC2` [compound 877], 3.3 µM; that for `CCC(CC)Oc1ccc2c(NC(=O)C3CC(C)(C)NC(C)(C)C3)nn(C)c2n1` [compound 950], 7.9 µM.
Still for that read-out and setting: the result for `Cn1nc(C(=O)NCC2CCCNC2)c2ccc(N3CCCCCC3)nc21` (centres unmarked) [compound 872] reads 8.1 µM.
Still for that read-out and setting: the figure for `Cn1nc(C(=O)NC2CCNCC2)c2ccc(OCc3ccccc3-c3ccco3)nc21` [compound 1100] is 1.4 µM; for `CCC(CC)Oc1ccc2c(C(=O)NC3CCNCC3)nn(C)c2n1` [compound 816] it is 2.4 µM.
On to `CCC(CC)Oc1ccc2c(NC(=O)C3CCNCC3)nn(C)c2n1` [compound 962], for which the EC50 under setting [1] worked out at 4.4 µM.
Take `Cn1nc(C(=O)NC2CCN(CCN3CCCCC3)CC2)c2ccc(NC3CCCCCCC3)nc21` [compound 1468]: under setting [1], the 50% effective concentration (EC50) stood at 0.33 µM.
Same read-out and setting: the result for `COc1ccc(CN2CCC(NC(=O)c3nn(C)c4nc(N5CCCCCC5)ccc34)CC2)cc1` [compound 1044] reads 0.76 µM.
On the same count and under the same terms, the result for `CC1CC(NC(=O)c2nn(Cc3ccc(Cl)cc3)c3nc(N4CCCCCC4)ccc23)CCN1` (centres unmarked) [compound 708] reads 2.4 µM; that for `O=C(NC1CCNC1)c1nnc2n(Cc3ccc(Cl)cc3)c(N3CCCCCC3)ccc1-2` (centres unmarked) [compound 712], 8.2 µM; that for `CC(C)CN(C)c1ccc2c(C(=O)NC3CCNCC3)nn(C)c2n1` [compound 690], 1.2 µM.
In the case of `CC(C)CNc1ccc2c(C(=O)NC3CCNCC3)nn(C)c2n1` [compound 688], the EC50 under setting [1] stood at 4.9 µM.
For `Cn1nc(-c2nnc(C3CCN(CC(F)F)CC3)o2)c2ccc(N3CCCCCCC3)nc21` [compound 1323], the half-maximal effective concentration (EC50) under setting [1] was 4.4 µM.
The same measure, in the same setting: the figure for `Cn1nc(C(=O)NC2CCN(CCO)CC2)c2ccc(N3CCCCCC3)nc21` [compound 1598] is 2.7 µM; for `Cn1nc(C(=O)NC2CCN(S(C)(=O)=O)CC2)c2ccc(N3CCCCCC3)nc21` [compound 699] it is 3.8 µM.
Turning to `COC[C@@H]1CCCN1CCN1CCC(NC(=O)c2nn(C)c3nc(N4CCCCCC4)ccc23)CC1` [compound 1556], the EC50 under setting [1] was 2.9 µM.
Turning to `CCn1nc(C(=O)NC2CCNCC2)c2ccc(N3CCCCCC3)nc21` [compound 856], the 50% effective concentration (EC50) under setting [1] is 3.7 µM.
Consider `CC(c1ccncc1)N1CCC(NC(=O)c2nn(C)c3nc(N4CCCCCCC4)ccc23)CC1` (centres unmarked) [compound 1304], for which the EC50 under setting [1] is 1.4 µM.
Consider `CC(C)Cn1nc(C(=O)NC2CCN(CCN3CCCCC3)CC2)c2ccc(N3CCCCCC3)nc21` [compound 1487], for which, under setting [1], the half-maximal effective concentration (EC50) amounted to 0.83 µM.
Regarding `Cn1nc(C(=O)NC2CCNCC2)c2ccc(OCc3ccccc3-c3cccnc3)nc21` [compound 1085], the EC50 under setting [1] came to 2.2 µM.
As to `Cn1nc(C(=O)NC2CCCNC2)c2ccc(N3CCCCCC3)nc21` (centres unmarked) [compound 698], under setting [1], the 50% effective concentration (EC50) came out at 3.8 µM.
With `CCCn1nc(C(=O)NC2CCN(CCN3CCCCC3)CC2)c2ccc(N3CCCCCC3)nc21` [compound 1486], the EC50 under setting [1] came to 0.76 µM.
On the same count and under the same terms, the figure for `CC1CC(NC(=O)c2nnc3n(Cc4ccc(Cl)cc4)c(N4CCCCCC4)ccc2-3)CCN1` (centres unmarked) [compound 713] is 6.1 µM.
For `Cn1nc(CCCN2CCCC2)c2ccc(N3CCCCCCC3)nc21` [EBP1171], under setting [2], the concentration for a half-maximal effect (EC50) was below 3 µM.
For the compound `Cn1cc(-c2nn(C)c3nc(N4CCCCCC4)ccc23)nc1CC1CCNCC1` [compound 1126], under setting [1], the EC50 turned out to be 7.7 µM.
Still for that read-out and setting: the figure for `Cn1nc(-c2cnc([C@@H]3CCCN3CC3CCCCC3)s2)c2ccc(N3CCCCCCC3)nc21` [compound 1264] is 2.4 µM.
Still for that read-out and setting: the figure for `Cn1nc(-c2c[nH]c(C3CCNCC3)n2)c2ccc(N3CCCCCC3)nc21` [compound 1094] is 6.5 µM; for `Cn1nc(CCCN2CCCCC2)c2ccc(N3CCCCCCC3)nc21` [compound 1172] it is 1.5 µM; for `Cn1nc(-c2nnc(C3CCN(CC4CCCCC4)C3)o2)c2ccc(N3CCCCCCC3)nc21` (centres unmarked) [compound 1365] it is 2.6 µM.
With `Cn1nc(-c2cnc(C(=O)NCC3CCCN(CC(F)F)C3)s2)c2ccc(N3CCCCCCC3)nc21` (centres unmarked) [compound 1261], the concentration giving a half-maximal response (EC50) under setting [1] was 1.8 µM.

In general, EC50 refers to the concentration at which the effect is half-maximal.
